{"source": "patent US4146622A", "about": "“Aziridinyl quinone anti-transplanted tumor agents” (priority 1977, dated 1979)", "key": {"ependymoblastoma": {"system": "ependymoblastoma", "assay": "Intracerebral (IC) ependymoblastoma (EM) brain tumor test", "assay_type": "in vivo, murine", "details": "Table X, IC ependymoblastoma"}, "[1]": {"assay": "Room temperature water solubility", "assay_type": "physicochemical", "details": "water; Table VII; room temperature, approximate; read-out: Approx. H2O Sol.", "outline": "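Water added incrementally by pipet, with shaking, to a weighed amount of compound at room temperature until dissolved; values are approximate.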"}, "B16 melanocarcinoma": {"system": "B16 melanocarcinoma", "assay": "Intraperitoneal B16 melanocarcinoma transplanted mouse tumor test", "assay_type": "in vivo, murine"}, "[2]": {"assay": "Octanol/H2O partition coefficient (log P)", "assay_type": "physicochemical", "details": "octanol/water; Table VII; octanol/H2O", "text": "^(b) Octanol/H2 O values determined by C. Hansch and M. Yamakawa"}, "[3]": {"system": "IP ascites tumor systems (leukemia L1210 and P388)", "assay": "IP ascites tumor systems (leukemia L1210 and P388)", "assay_type": "in vivo, murine", "excerpt": "The criterion for minimum activity, %ILS, is defined here as follows: Intraperitoneal and intracerebral leukemia L1210 and intraperitoneal leukemia P388, 25%; intraperitoneal B16 melanoma and intracerebral ependymoblastoma, 40%. Consistent with NCI antitumor test protocols, intraperitoneal (IP) administration of the drug was employed with all five tumor systems investigated. Tumor implantation was IP in the systems designated IP leukemia L1210 and P388 as well as B16 melanoma. Intracerebral (IC) tumor implantation was utilized in the IC L1210 and ependymoblastoma tumor systems."}, "[4]": {"system": "P388 lymphocytic leukemia", "assay": "Intraperitoneal (IP) lymphocytic leukemia P388 transplanted mouse tumor test", "assay_type": "in vivo, murine", "excerpt": "^b Ip tumor implantation, ip QD1-9 treatment schedule.\nThe L1210, P388 and B16 test systems described in Table II utilize intraperitoneal (IP) tumor implantation and IP drug treatment while the Lewis lung system employs subcutaneous tumor implantation and IP treatment.\nAqueous saline solution (0.9%) was used as the drug vehicle. Normally, five doses were employed per experiment with the top dose chosen to produce toxicity. The lower doses were 50% of each preceeding dose.\nConsistent with NCI antitumor test protocols, intraperitoneal (IP) administration of the drug was employed with all five tumor systems investigated. Tumor implantation was IP in the systems designated IP leukemia L1210 and P388 as well as B16 melanoma."}, "lymphoid leukemia L1210 [5]": {"system": "lymphoid leukemia L1210", "assay": "Intraperitoneal (IP) lymphoid leukemia L1210 transplanted mouse tumor test", "assay_type": "in vivo, murine", "details": "for OD (optimum dose) / ILS (percentage increase in life span) / animals alive per 6 test animals on day of termination: Table VIII; for cures: survivors on day 30, L1210", "text": "^(a) Day 1-9 treatment schedule (9 injections)\n^(b) Day 1,5,9 treatment schedule (3 injections)\n^(c) Day 1 only treatment schedule (1 injection)\n^(f) Percentage increase in life span of treated animals [(treated\nsurvival .div. control survival) × 100%] - 100%"}, "lymphoid leukemia L1210 [6]": {"system": "lymphoid leukemia L1210", "assay": "Intracerebral (IC) lymphoid leukemia L1210 test", "assay_type": "in vivo, murine", "excerpt": "^b Ic tumor implantation, ip QD1-9 treatment schedule.\nThe L1210, P388 and B16 test systems described in Table II utilize intraperitoneal (IP) tumor implantation and IP drug treatment while the Lewis lung system employs subcutaneous tumor implantation and IP treatment. All three CNS tumor models (Table III) use intracerebral (IC) tumor implantation and IP treatment.\nConsistent with NCI antitumor test protocols, intraperitoneal (IP) administration of the drug was employed with all five tumor systems investigated. Tumor implantation was IP in the systems designated IP leukemia L1210 and P388 as well as B16 melanoma. Intracerebral (IC) tumor implantation was utilized in the IC L1210 and ependymoblastoma tumor systems."}, "[7]": {"details": "Table XI, per 6 test animals, day 30"}}, "note": "Several values for one entry are separate records, joined by “and”; a condition that tells them apart may be missing. Identical values can stand only once. Entries after “also recorded” stand apart in the source; their conditions may differ."}
{"smiles": "O=C1C(NCCO)=C(N2CC2)C(=O)C(NCCO)=C1N1CC1", "note": "[Compound 38]", "values": [{"measurement": "OD (optimum dose)", "setting": "ependymoblastoma; QD1-5", "value": 1.5, "unit": "mg/kg/injection"}, {"measurement": "ILS (percentage increase in life span)", "setting": "ependymoblastoma; QD1-5, at OD", "value": "83% and 70%"}, {"measurement": "solubility", "setting": "[1]", "value": 2000, "unit": "µg/mL"}, {"measurement": "antitumor activity", "setting": "B16 melanocarcinoma; B16 melanoma", "value": "active"}, {"measurement": "OD (optimum dose)", "setting": "B16 melanocarcinoma; Table IX, B16, QD1-9", "value": 0.4, "unit": "mg/kg/injection"}, {"measurement": "ILS (percentage increase in life span)", "setting": "B16 melanocarcinoma; Table IX, B16, QD1-9, at OD", "value": "61% and 51%"}, {"measurement": "ILS (%) B16", "setting": "B16 melanocarcinoma; Table XI, outstanding activity", "value": 61, "unit": "%"}, {"measurement": "logP", "setting": "[2]", "value": -1.48}, {"measurement": "antitumor activity", "setting": "[3]", "value": "most active; also recorded: superior"}, {"measurement": "antitumor activity", "setting": "[4]; IP P388", "value": "very active"}, {"measurement": "cures", "setting": "[4]; P388, 30 day survivors, QD1-9", "value": "multiple cures"}, {"measurement": "OD (optimum dose)", "setting": "[4]; Table IX, IP P388, QD1-9", "value": 0.4, "unit": "mg/kg/injection"}, {"measurement": "ILS (percentage increase in life span)", "setting": "[4]; Table IX, IP P388, QD1-9, at OD", "value": "175% and 160%"}, {"measurement": "animals alive per 6 test animals on day of termination", "setting": "[4]; Table IX, IP P388, QD1-9, at OD, day 30", "value": "3 and 2"}, {"measurement": "survivors (number in parentheses) P388", "setting": "[4]; [7]", "value": 3}, {"measurement": "maximum ILS", "setting": "lymphoid leukemia L1210 [5]; IP L1210", "value": "> 200", "unit": "%"}, {"measurement": "antitumor activity", "setting": "lymphoid leukemia L1210 [5]; IP L1210, tetraaminobenzoquinone series (Table VIII)", "value": "Excellent activity"}, {"measurement": "OD (optimum dose)", "setting": "lymphoid leukemia L1210 [5]; IP L1210, Day 1 only (1 injection)", "value": 1.5, "unit": "mg/kg/injection"}, {"measurement": "ILS (percentage increase in life span)", "setting": "lymphoid leukemia L1210 [5]; IP L1210, Day 1 only, at OD", "value": "175% and 119%"}, {"measurement": "animals alive per 6 test animals on day of termination", "setting": "lymphoid leukemia L1210 [5]; IP L1210, Day 1 only, at OD, day 30", "value": "5 and 3"}, {"measurement": "OD (optimum dose)", "setting": "lymphoid leukemia L1210 [5]; IP L1210, Q4D(1,5,9) (3 injections)", "value": 0.7, "unit": "mg/kg/injection"}, {"measurement": "ILS (percentage increase in life span)", "setting": "lymphoid leukemia L1210 [5]; IP L1210, Q4D(1,5,9), at OD", "value": "131% and 70%"}, {"measurement": "OD (optimum dose)", "setting": "lymphoid leukemia L1210 [5]; IP L1210, QD1-9 (9 injections)", "value": 0.7, "unit": "mg/kg/injection"}, {"measurement": "ILS (percentage increase in life span)", "setting": "lymphoid leukemia L1210 [5]; IP L1210, QD1-9, at OD", "value": "205% and 134%"}, {"measurement": "animals alive per 6 test animals on day of termination", "setting": "lymphoid leukemia L1210 [5]; IP L1210, QD1-9, at OD, day 30", "value": "2 and 3"}, {"measurement": "ILS (%) IP L1210", "setting": "lymphoid leukemia L1210 [5]; Table XI, outstanding activity", "value": 205, "unit": "%"}, {"measurement": "survivors (number in parentheses) IP L1210", "setting": "lymphoid leukemia L1210 [5]; [7]", "value": 2}, {"measurement": "cures", "setting": "lymphoid leukemia L1210 [5]", "value": "produced cures"}, {"measurement": "cures", "setting": "lymphoid leukemia L1210 [5]; listed as hydroxyethylamino", "value": "Multiple cures"}, {"measurement": "antitumor activity", "setting": "lymphoid leukemia L1210 [6]; IC L1210", "value": "marginal"}, {"measurement": "OD (optimum dose)", "setting": "lymphoid leukemia L1210 [6]; Table X, IC L1210, QD1-9", "value": 0.75, "unit": "mg/kg/injection"}, {"measurement": "ILS (percentage increase in life span)", "setting": "lymphoid leukemia L1210 [6]; Table X, IC L1210, QD1-9, at OD", "value": "57% and 48%"}, {"measurement": "ILS (%) IC L1210", "setting": "lymphoid leukemia L1210 [6]; Table XI, outstanding activity", "value": 57, "unit": "%"}]}
